This note sets out measurements from ChEMBL document CHEMBL1139525, “Targeting and inhibition of cell growth by an engineered dendritic nanodevice” (J Med Chem, 2005).

Assay [1] is described as follows: Dissociation constant against folic acid receptor (FAR); Value ranges from 0.1-1 nM. Further details: species or system Homo sapiens.
In a further assay the test system is KB. Description: Concentration required to completely block the uptake of either G5-FI-FA or G5-FI-FA-MTX dendrimer (30 nM) in FAR expressing KB cells. The assay is classed as functional, cell-based. The settings on record: Homo sapiens.

Each structure is given as a SMILES string.

In assay [1], `Nc1nc(=O)c2nc(CNc3ccc(C(=O)N[C@@H](CCC(=O)O)C(=O)O)cc3)cnc2[nH]1` [FOLIC ACID] gave a Kd of 1 nM. In the assay with KB, this molecule gave a Concentration of 50 µM.

One may read the Kd as a measure of binding affinity in units of concentration. A higher Kd goes with weaker binding.
